In assay [1] the target is T1, rat 5-HT2A receptor (Rattus norvegicus, UniProt P14842).
T1 construct: host or cells: NIH 3T3 cells, cotransfected with the beta-galactosidase gene
As to the kind of experiment: R-SAT assay, NIH 3T3 cells expressing the rat 5-HT2A receptor, β-galactosidase readout. Type of assay: cell-based. As to conditions: agent 500 nM, 100 nM 5-HT, compared with oleamide. As to the method: (§1) Activation of the 5-HT2A or 5-HT1A receptors in 5-HT dependent cell lines results in cell prolification measured by the levels of -galactosidase produced.
(§2) An extensive series of agents was tested at 500 nM for their ability to potentiate the rat 5-HT2A or human 5-HT1A receptor response to 100 nM 5-HT. […] The analog screening was conducted with the rat 5-HT2A assay and a subset of analogs was also examined in the human 5-HT1A assay. The results reported are normalized to a 100% potentiation by oleamide for the ease of direct comparisons.
(§3) Methods. The assays were conducted with R-SAT kits (Receptor Technologies Inc, Winooski, Vt.) containing NIH 3T3 cells expressing the rat 5-HT2A receptor (Suter et al. (1987) Fundam. Appl. Toxicol. 9, 785-794; Pritchett et al. (1988) EMBO J 7, 4135-4140) or RAT-1 cells expressing the human 5-HT1A receptor (Lam et al. (1996) Biochem. Biophys. Res. Commun. 219, 853-858; Kobilka et al. (1987) Nature 329, 75-79) cotransfected with the -galactosidase gene and were performed according to the procedures provided (Messier et al. (1995) Pharmacol. Toxicol. 76, 308-311; Brann et al. (1996) J. Biomol. Screening 1, 43-45). The cells in Dulbecco modified Eagle's medium containing serotonin (100 nM) and the analogs (500 nM) were incubated in a humidified 5% CO2 incubator at 37° C. for 4 or 5 days for the 5-HT2A and 5-HT1A transfected cells, respectively. Levels of -galactosidase were measured after incubation with the chromogenic substrate o-nitrophenyl- -D-galactopyranoside (20) at 30° C. in a humidified incubator for a recommended period of time and the absorbance was measured at 405 nm. The results were normalized to 100% for oleamide (rel. % potentiation) for the ease of comparison and are the average of 2-8 determinations.

The target of assay [2] is T2, human 5-HT1A receptor (Homo sapiens, UniProt P08908).
T2 construct: host or cells: RAT-1 cells, cotransfected with the beta-galactosidase gene
T2 sequence (P08908 1-422): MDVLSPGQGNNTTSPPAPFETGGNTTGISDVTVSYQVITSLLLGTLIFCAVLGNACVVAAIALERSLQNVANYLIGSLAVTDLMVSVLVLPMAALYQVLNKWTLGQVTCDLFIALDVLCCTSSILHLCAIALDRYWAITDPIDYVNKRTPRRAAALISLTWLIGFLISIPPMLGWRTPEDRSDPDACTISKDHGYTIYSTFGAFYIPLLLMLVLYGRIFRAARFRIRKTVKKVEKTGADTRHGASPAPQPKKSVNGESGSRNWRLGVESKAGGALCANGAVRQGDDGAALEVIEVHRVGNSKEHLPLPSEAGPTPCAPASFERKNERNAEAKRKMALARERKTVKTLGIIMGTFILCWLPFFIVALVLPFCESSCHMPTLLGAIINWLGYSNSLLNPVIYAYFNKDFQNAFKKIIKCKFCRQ
Put plainly: R-SAT assay, RAT-1 cells expressing the human 5-HT1A receptor, β-galactosidase readout. Type of assay: cell-based. As to conditions: agent 500 nM, 100 nM 5-HT, compared with oleamide. As to the method:
as §1, §2, §3

For assay [3], the target named is T1, rat 5-HT2A receptor. Put plainly: R-SAT assay, NIH 3T3 cells expressing the rat 5-HT2A receptor, β-galactosidase readout. The following applies: for potentiation response: 100 nM oleamide. In kind it is cell-based.
Assay [4] has as its target T2, human 5-HT1A receptor. As to the kind of experiment: R-SAT assay, RAT-1 cells expressing the human 5-HT1A receptor, β-galactosidase readout. Type of assay: cell-based. The following applies: for potentiation: 100 nM 5-HT.
The target of a further assay is T3, 5-HT2C receptor (Homo sapiens, UniProt P28335).
T3 construct: host or cells: frog oocytes, transfected
T3 sequence (P28335 33-458): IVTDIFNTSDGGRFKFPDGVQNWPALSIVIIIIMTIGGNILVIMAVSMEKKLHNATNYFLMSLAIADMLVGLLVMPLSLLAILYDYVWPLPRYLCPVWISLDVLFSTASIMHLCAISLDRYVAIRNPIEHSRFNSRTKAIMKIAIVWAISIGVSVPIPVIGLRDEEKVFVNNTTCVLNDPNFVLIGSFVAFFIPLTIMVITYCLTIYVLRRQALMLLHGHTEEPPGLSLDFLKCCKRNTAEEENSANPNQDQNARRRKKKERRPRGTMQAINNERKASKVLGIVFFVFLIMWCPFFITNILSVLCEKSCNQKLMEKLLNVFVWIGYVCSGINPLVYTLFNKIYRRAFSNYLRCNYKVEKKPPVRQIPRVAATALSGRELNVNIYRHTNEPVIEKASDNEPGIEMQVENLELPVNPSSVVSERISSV
The following applies: cited from earlier work.

The target of the next assay is T4, 5-HT7 receptor (Homo sapiens, UniProt P34969).
T4 construct: host or cells: HeLa cells, transfected
The following applies: cited from earlier work.

The target of assay [5] is T5, 5-HT3 ion-gated channel receptor (Homo sapiens, UniProt P46098).
T5 construct: host or cells: frog oocytes, transfected
T5 sequence (P46098 24-478): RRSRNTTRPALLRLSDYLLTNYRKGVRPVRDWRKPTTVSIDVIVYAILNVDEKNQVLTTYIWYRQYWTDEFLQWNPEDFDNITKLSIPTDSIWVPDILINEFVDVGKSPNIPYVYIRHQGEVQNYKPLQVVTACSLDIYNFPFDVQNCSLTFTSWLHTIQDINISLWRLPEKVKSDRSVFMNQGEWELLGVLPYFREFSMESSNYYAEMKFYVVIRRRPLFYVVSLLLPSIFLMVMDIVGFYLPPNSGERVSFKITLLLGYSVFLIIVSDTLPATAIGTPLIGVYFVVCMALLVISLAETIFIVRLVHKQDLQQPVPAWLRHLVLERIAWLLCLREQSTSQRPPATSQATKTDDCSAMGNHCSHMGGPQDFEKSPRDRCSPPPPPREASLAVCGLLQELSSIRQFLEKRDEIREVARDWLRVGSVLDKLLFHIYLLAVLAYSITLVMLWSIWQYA
As to conditions: 100 nM serotonin, 100 nM oleamide; cited from earlier work.

A further assay addresses T6, 5-HT2A receptors (Rattus norvegicus, UniProt P14842).
T6 construct: rat pituitary P11 cells expressing the 5-HT2 receptor; endogenous in cells; host or cells: rat pituitary P11 cells
As to conditions: 100 nM serotonin, 100 nM oleamide; Thomas et al. 1997; cited from earlier work.

For the next assay, the target named is T7, 5-HT2A receptor (Homo sapiens, UniProt P28223).
T7 construct: host or cells: frog oocytes, transfected
As to conditions: 100 nM serotonin, 100 nM oleamide; Huidobro-Toro et al. 1996; cited from earlier work.

The test system of the next assay is FAAH. The following applies: cited from earlier work.

Entries after “also recorded” stand apart in the source; their conditions may differ. Read-outs that look alike come from different tables or passages of the source.

T1 sequence (P14842 whole entry): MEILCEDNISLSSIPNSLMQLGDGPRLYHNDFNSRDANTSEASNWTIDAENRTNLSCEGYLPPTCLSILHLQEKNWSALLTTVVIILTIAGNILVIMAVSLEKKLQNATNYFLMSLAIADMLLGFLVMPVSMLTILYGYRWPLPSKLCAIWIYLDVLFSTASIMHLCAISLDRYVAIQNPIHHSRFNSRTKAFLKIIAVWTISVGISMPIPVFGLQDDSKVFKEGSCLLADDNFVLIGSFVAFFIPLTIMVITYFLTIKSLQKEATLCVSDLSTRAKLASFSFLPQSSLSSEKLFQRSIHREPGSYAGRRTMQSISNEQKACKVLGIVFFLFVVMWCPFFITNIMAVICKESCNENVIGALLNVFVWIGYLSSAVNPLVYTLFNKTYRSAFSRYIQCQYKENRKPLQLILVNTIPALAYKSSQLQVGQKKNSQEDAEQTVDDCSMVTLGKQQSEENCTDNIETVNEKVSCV
T4 sequence (P34969 whole entry): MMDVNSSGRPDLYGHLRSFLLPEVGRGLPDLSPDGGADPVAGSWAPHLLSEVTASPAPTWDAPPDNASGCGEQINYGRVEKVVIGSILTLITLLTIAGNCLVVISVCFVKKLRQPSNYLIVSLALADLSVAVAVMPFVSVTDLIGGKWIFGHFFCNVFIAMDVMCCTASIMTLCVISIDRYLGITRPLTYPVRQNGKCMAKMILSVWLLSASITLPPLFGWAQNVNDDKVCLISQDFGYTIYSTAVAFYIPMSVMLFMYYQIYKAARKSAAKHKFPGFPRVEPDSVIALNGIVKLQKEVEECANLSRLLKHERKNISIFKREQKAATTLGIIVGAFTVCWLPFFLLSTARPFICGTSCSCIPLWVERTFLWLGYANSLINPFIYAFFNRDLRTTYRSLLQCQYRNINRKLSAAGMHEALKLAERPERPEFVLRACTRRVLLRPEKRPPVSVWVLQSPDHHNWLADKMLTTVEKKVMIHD
T7 sequence (P28223 whole entry): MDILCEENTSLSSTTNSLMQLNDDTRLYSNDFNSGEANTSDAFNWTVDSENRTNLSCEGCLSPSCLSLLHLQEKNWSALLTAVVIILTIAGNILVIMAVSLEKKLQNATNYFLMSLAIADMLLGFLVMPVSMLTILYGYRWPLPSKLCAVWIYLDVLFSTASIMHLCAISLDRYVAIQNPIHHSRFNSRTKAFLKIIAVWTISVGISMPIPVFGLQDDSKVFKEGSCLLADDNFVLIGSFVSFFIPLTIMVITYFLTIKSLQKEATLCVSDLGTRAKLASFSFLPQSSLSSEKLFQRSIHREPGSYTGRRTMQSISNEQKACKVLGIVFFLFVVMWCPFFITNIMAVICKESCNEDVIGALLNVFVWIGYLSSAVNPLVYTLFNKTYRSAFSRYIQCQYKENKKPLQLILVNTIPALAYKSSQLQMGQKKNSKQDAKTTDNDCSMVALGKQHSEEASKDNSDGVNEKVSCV
T6 sequence (P14842 whole entry): as the sequence (P14842 whole entry) above

Turning to `CCCCCCCC/C=C\CCCCCCCCOCC(CO)OC(C)=O` (stereo not drawn) [1-oleyl-2-acetylglycerol], the “potentiation of the 5-HT2A receptor response (in words)” value at rat 5-HT2A receptor [1] is recorded as “weakly inhibited”.
Still for that read-out and setting: in the case of `CCCCCCCC/C=C\CCCCCCC(C)(C)C(N)=O` [2,2-dimethyloleamide] it was “potent inhibitors”.
In the case of `CCCC/C=C\CCCCCCCC(N)=O` [14:1^9, Myristoleamide], the “potentiation of the 5-HT1A receptor response (in words)” value at human 5-HT1A receptor [2] is given as “more effective on the 5-HT1A receptor than 5-HT2A”.
Still for that read-out and setting: with `CCCCCC/C=C\CCCCCCCC(N)=O` [16:1^9, Palmitoleamide] the entry was “approaching the potency of oleamide”.
Take `CCCCCCCCCCCCCCCCCC(N)=O` [18:0, stearamide]: the “potentiation of the 5-HT2A receptor response (in words)” value on rat 5-HT2A receptor [1] is “no observable potentiation; also recorded: ineffective at potentiating”. The “potentiation of the 5-HT1A receptor response (in words)” value on human 5-HT1A receptor [2] was “less effective than oleamide, albeit not inactive”.
`CCCCCCCC/C=C/CCCCCCCC(N)=O` [18:1^9-trans, Elaidamide]: the “potentiation of the 5-HT2A receptor response (in words)” value on rat 5-HT2A receptor [1] is listed as “no observable potentiation; also recorded: ineffective at potentiating”. For the same molecule, on human 5-HT1A receptor [2], the “potentiation of the 5-HT1A receptor response (in words)” value is “less effective than oleamide, albeit not inactive”.
Regarding `CCCCC/C=C\C/C=C\CCCCCCCC(N)=O` [18:2^9,12, Linoleamide], the “potentiation of the 5-HT1A receptor response (in words)” value on human 5-HT1A receptor [2] is recorded as “approaching the potency of oleamide”.
As to `CC/C=C\C/C=C\C/C=C\CCCCCCCC(N)=O` [18:3^6,9,12, linolenamide], the “potentiation of the 5-HT2A receptor response (in words)” value on rat 5-HT2A receptor [1] is given as “more effective but still less potent”.
Turning to `CCCCCCCCCCCCCC/C=C\CCCC(N)=O` [20:1^5], the “potentiation of the 5-HT2A receptor response (in words)” value at rat 5-HT2A receptor [1] (listed as 20:1^9) is reported as “inactivity”; on rat 5-HT2A receptor [1] (listed as 20:1^13), “modest activity”.
Consider `CCCCCCCC/C=C\CCCCCCCCCCCCCC(N)=O` [24:1^9, Nervonamide], for which, on rat 5-HT2A receptor [1], the “potentiation of the 5-HT2A receptor response (in words)” value is given as “modest activity”.
On to `CCCCC/C=C\C/C=C\C/C=C\C/C=C\CCCC(N)=O` [Arachidonamide], for which the “potentiation of the 5-HT2A receptor response (in words)” value on rat 5-HT2A receptor [1] is “ineffective”; on rat 5-HT2A receptor [1] (listed as arachidonamide), “less active or ineffective”.
Consider `CCCCCCCCC#CCCCCCCCC(N)=O` [Compound 2, 9-octadecynamide], for which the “potentiation of the 5-HT2A receptor response (in words)” value at rat 5-HT2A receptor [1] is listed as “nearly equipotent with oleamide”.
For `CCCCCCCC/C=C\CCCCCCCC(=O)NCC(=O)O` [N-oleyl glycine, N-Oleoyl glycine], the “potentiation of the 5-HT1A receptor response (in words)” value at human 5-HT1A receptor [2] was “weak potentiator”.
For the molecule `CCCCCCCCC=CCCCCCCCC(=O)N(C)C` [NMe2 tertiary amide], at rat 5-HT2A receptor [1], the “potentiation of the 5-HT2A receptor response (in words)” value is given as “maximum effect”.
Turning to `CCCCC/C=C\C/C=C\C/C=C\C/C=C\CCCC(=O)NCCO` [anandamide, reference compound], the “potentiation of the 5-HT2A receptor response (in words)” value at rat 5-HT2A receptor [1] is given as “weakly inhibitory; also recorded: less active or ineffective”. Also, the “potentiation of the 5-HT1A receptor response (in words)” value on human 5-HT1A receptor [2] is “found to potentiate”.
For `CCCCCCCC/C=C\CCCCCCCC(=O)NC1CC1` [cyclopropyl amide], in that order: “uniquely effective at inhibiting; also recorded: inactive or inhibitory” and “effective at potentiating”.
For `CCCCCCCCC=CCCCCCCCC(=O)NC(C)C` [isopropyl amide], in that order: “inactive or inhibitory” and “effective at potentiating”.
Regarding `CCCCCCCC/C=C\CCCCCCCC(N)=O` [oleamide, cis-9-ocatadecenamide], at rat 5-HT2A receptor [1], the “potentiation of the 5-HT2A receptor response (in words)” value is on record as “most effective”. Further, the potentiation response on rat 5-HT2A receptor [3] (100 nM 5-HT) was 165%; at rat 5-HT2A receptor [3] (1 μM 5-HT) it was 170%. Moreover, the “potentiation at higher concentration” value at rat 5-HT2A receptor [3] (1 μM oleamide) is “no additional potentiation”. Also, the “concentration giving maximal response” value on rat 5-HT2A receptor [3] (assayed at 100 nM or 1 μM 5-HT) was 100 nM. Besides, the “effect of treatment alone” value on rat 5-HT2A receptor [3] (without 5-HT) and on human 5-HT1A receptor [4] (without 5-HT) was “no effect” in each case. For the same molecule, the potentiation on human 5-HT1A receptor [4] (100 nM oleamide) is listed as 370%; at human 5-HT1A receptor [4] (1 μM oleamide) it was 560%. Also, on human 5-HT1A receptor [4] (with 5-HT), the “lowest concentrations producing a measurable effect” value was 1 to 10 nM. In addition, the “potentiation of 5-HT2C” value at 5-HT2C receptor (100 nM serotonin, 100 nM oleamide) is listed as 365%. Besides, the “concentration of maximal potentiation” value at 5-HT2C receptor is listed as 100 nM. Further, the “lowest concentration at which potentiation was observed” value on 5-HT2C receptor was 1 nM. Besides, the “action at the 5-HT7 receptor” value at 5-HT7 receptor (alone) is “weak agonist”; at 5-HT7 receptor (in the presence of serotonin) it was “unsurmountable antagonist”. Also, the “effect on 5-HT3 receptor” value in assay [5] is “no effect”. Besides, the “potentiation of 5-HT2A” value at 5-HT2A receptors was 228%; at 5-HT2A receptor it was 260%.
`CCCCCCCC/C=C\CCCCCCCC(=O)O` [oleic acid, Oleic acid, reference compound]: the “potentiation of the 5-HT2A receptor response (in words)” value at rat 5-HT2A receptor [1] was “did not provide a comparable potentiation”. Also, on human 5-HT1A receptor [2], the “potentiation of the 5-HT1A receptor response (in words)” value is recorded as “better tolerated”.
Turning to `CCCCCCCC/C=C\CCCCCCCC=O` [oleyl aldehyde], the “inhibition of FAAH (in words)” value in the assay on FAAH is “potent inhibitors”.
In the case of `CCCCCCCC/C=C\CCCCCCCC(=O)NCCO` [oleyl ethanolamide], the “potentiation of the 5-HT2A receptor response (in words)” value on rat 5-HT2A receptor [1] is given as “less active or ineffective”. In addition, the “potentiation of the 5-HT1A receptor response (in words)” value on human 5-HT1A receptor [2] is given as “found to potentiate”.
On to `CCCCCCCC/C=C\CCCCCCCC(=O)NCCCO` [oleyl propanolamide], for which the “potentiation of the 5-HT1A receptor response (in words)” value at human 5-HT1A receptor [2] is on record as “equally effective”.

These data come from patent publication US6734204B1, “Serotonin potentiation by oleamide analogs” (The Scripps Research Institute, priority 1998, dated 2004).
